# Read-outs that look alike come from different tables or passages of the source.
# How the values were obtained:
# [1] = test system: paclitaxel (albumin bound) chemotherapy-induced peripheral neuropathy; assay: Paclitaxel (albumin bound) chemotherapy-induced peripheral neuropathy in rats, butylphthalide intragastric administration (Example 2); type: in vivo, SD (Sprague Dawley) rats; details: compared with the model group
# Protocol: The model group was given vegetable oil at the same frequency and with the same administration method as NBP. The normal group was given normal saline at the same frequency and with the same administration method as ab-PTX, and was given vegetable oil at the same frequency and with the same administration method as NBP. […] (2) Thermal pain threshold: measurements were performed on days −1, 7, and 14. Method: IITC Life Science Electronic Von Frey Anesthesio meter was used and the intensity of the light source was adjusted to obtain a baseline of thermal pain threshold of about 3-6 s. […] The rats were placed in a plastic compartment on a glass plate, to make the planta centers of the rats be exposed to the light source. […] (3) Mechanical stimulus pain threshold: measurements were performed on days 0, 6, and 13. Method: the rats were placed in a plastic compartment on a wire mesh, left to stand still for 15 min, stimulated using a stimulation probe with a diameter of 0.4 mm of the IITC Life Science Electronic Von Frey Anesthesio meter at the planta centers of the rats by gradually increasing the force until reflexive withdrawal of the rats.
# [2] = PK of total paclitaxel in plasma, B16/F10 tumor-bearing mice (Example 3); type: in vivo, C57BL/6N mice; details: NBP 3, 10, 30 mg/kg bid i.p. with ab-PTX 25 mg/kg; Cmax, AUC0-t and other indexes
# Protocol: Administration volume: 10 mL/kg. […] The administration was performed for 15 consecutive days. The administration volume was 10 mL/kg. Before the administration of the last dose of ab-PTX (0 h), and 5 min, 0.5 […] after the administration, blood was sampled (as detailed in Table 5), anticoagulated with heparin, and centrifuged to separate plasma, which was stored at -80° C. for later use. The total amount of paclitaxel in the plasma was determined by protein precipitation-LC/MS/MS.
# JIMT-1 xenograft tumor = assay: Influence of NBP on antitumor efficacy of ab-PTX against JIMT-1 xenograft tumor (Example 4); type: in vivo, Nu/Nu mice
# Protocol: After in vitro resuscitation and passage of JIMT-1 cells to a sufficient amount, the cells were counted by a microscope, and diluted with a serum-free medium to adjust the cell count to about 1×10^8 cells/mL. The cell suspension was kept in an ice-water bath. […] Monotherapy group of ab-PTX: intravenous injection of ab-PTX at 15 mg/kg once every week, qw (on days 0, 7, 14, 21, and 28). Administration period: 28 days. Administration volume: 10 mL/kg. Monotherapy group of NBP: […] The administration volume was 10 mL/kg. […] The administration period was 28 days. The administration volume was 10 mL/kg. The solvent group was given normal saline at the same frequency and with the same method as ab-PTX, and was given vegetable oil at the same frequency and with the same method as NBP. […] Animals were weighed at set time once per day after the commencement of administration. At the end of the experiment, after the animals were euthanized by CO2 asphyxiation, the tumors were excised and weighed.
# [3] = test system: MDA-MB-231, JIMT-1, SK-OV-3, HT29, A549, A375; assay: In vitro proliferation of 6 tumor cell strains, summary statements (Example 5); type: cell-based, Human; details: NBP alone; 6 cell strains
# Protocol: This experiment includes a monotherapy group of ab-PTX, a combined therapy group (ab-PTX/NBP), and an NBP group. Different drug concentration gradients were set for each group.
# ab-PTX/NBP group: the final concentration of NBP was 30 μM, and the concentration gradient of ab-PTX was the same as that of the monotherapy group.
# Monotherapy group of NBP: NBP was 2× serially diluted from an initial concentration of 480 μM to 8 concentrations: 480, 240, 120, 60, 30, 15, 7.5, and 3.75 μM, respectively.
# The action time of the drug was 72 h.
# 24 h after adherence, 100 μL of the culture solution containing different concentration gradients of ab-PTX was added to each well of the monotherapy group of ab-PTX; 100 μL of the culture solution containing different concentration gradients of ab-PTX and 30 μM NBP was added to each well of the combined therapy group of ab-PTX/NBP; 100 μL of the culture solution containing different concentration gradients of NBP was added to each well of the monotherapy group of NBP; 3 repeated wells were provided for each concentration of each drug, and the blank wells (only culture medium was present) and the normal wells (drug concentration was 0) were provided.
# The experiment was repeated three times, and the IC50 value was expressed as the mean±SD of the results of the 3 experiments.
# [4] = PK of Bortezomib and butylphthalide in plasma of MM.1S tumor-bearing mice (Example 8); type: in vivo, Nu/Nu mice
# Protocol: Monotherapy group of Bortezomib: administered by intraperitoneal injection at 0.5 mg/kg, biw (on days 0, 3, 7, 10, and 15);
# Monotherapy group of NBP: administered by transoral gavage at 60 mg/kg, bid (the administration was commenced on day 0), and the second dose of NBP was administered with an interval from the first dose of ≥4 h;
# Monotherapy group of Palbociclib: intragastric administration at 70 mg/kg, qd (the administration was commenced on day 0);
# Combined therapy group of NBP/Bortezomib: the administration frequency and dose were the same as the frequency and dose of the monotherapy group of NBP and the monotherapy group of Bortezomib, respectively.
# Combined therapy group of Bortezomib/Palbociclib: the administration frequency and dose were the same as the frequency and dose of the monotherapy group of Bortezomib and the monotherapy group of Palbociclib, respectively.
# Combined therapy group of NBP/Bortezomib/Palbociclib: the administration frequency and dose were the same as the frequency and dose of the monotherapy group of NBP, the monotherapy group of Bortezomib, and the monotherapy group of Palbociclib, respectively.
# Before administration of the last dose of Bortezomib (0 h), and 5 min, 15 min, 30 min, 1 h, 2 h, 4 h, 8 h, 24 h after the administration, blood was sampled (as detailed in Table 8) (except that blood was sampled from the mice in the solvent group only at 0 h), anticoagulated with heparin, and centrifuged to separate plasma, which was stored at −80° C. for later use. Bortezomib and butyphthalide in the plasma were determined by protein precipitation-LC/MS/MS.
# A549 = assay: In vitro tumor cell proliferation, MTT (Example 7); details: Homo sapiens, A549, 72 h
# Protocol: This experiment includes a monotherapy group of Bortezomib, a combined therapy group (Bortezomib/NBP), and a monotherapy group of NBP. Different drug concentration gradients were set for each group.
# Monotherapy group of Bortezomib: (1) MM.1S, Jeko-1, and HT29 cells: Bortezomib was 1.5× serially diluted from an initial concentration of 20 nM to 8 concentrations: 20, 13.33, 8.89, 5.93, 3.95, 2.63, 1.76, and 1.17 nM, respectively; (2) A549 cells: Bortezomib was 2×serially diluted from an initial concentration of 200 nM to 8 concentrations: 200, 100, 50, 25, 12.5, 6.25, 3.13, and 1.56 nM, respectively; and (3) DU145 cells: Bortezomib was 2× serially diluted from an initial concentration of 100 nM to 8 concentrations: 100, 50, 25, 12.5, 6.25, 3.13, 1.56, and 0.78 nM, respectively.
# A certain number of conventionally cultured cells in logarithmic growth phase were inoculated in a 96-well plate with 100 μL per well. […] For adherent cells HT29, A549, and DU145, the above drugs were added 24 h after adherence. 3 replicate wells were set for each concentration of each drug, and blank wells (only culture medium was present, and no tumor cells were inoculated) and normal wells (a culture medium inoculated with tumor cells, drug concentration was 0) were set. The drugs functioned for 72 h, then MTT working solution (5 mg/mL) was added at 20 μL per well; after functioning at 37° C. for 4 h, the supernatant was removed, 150 μL of DMSO (analytically pure) was added; the mixture was fully mixed using a microplate oscillator, the plate was wiped clean, and the optical density (OD) at 550 nm was measured using a microplate reader.
# The cell growth inhibition rate was computed using the following equation:
# Inhibition rate (%)=(OD valuenormal well−OD valueadministration well)/(OD valuenormal well−OD valueblank well)×100%
# Based on the inhibition rate of each concentration, the median inhibitory concentration IC50 of the drug was computed using SPSS19.0.
# [5] = NBP 60 mg/kg gavage, Bor 0.5 mg/kg, Pal 70 mg/kg, mean ± SD, n=6
smiles,measurement,setting,value
"CCCCC1OC(=O)c2ccccc21 (centres unmarked) [NBP, 3-n-butylphthalide]",body weights of the rats,"[1]; NBP 3, 10 and 30 mg/kg bid, duloxetine hydrochloride 15 mg/kg qd, intragastric, throughout administration",not obviously changed
same,mechanical pain threshold,"[1]; day 6, NBP 30 mg/kg bid p.o., P<0.05",significantly decreased
same,thermal pain threshold,"[1]; day 7, NBP 30 mg/kg bid p.o., P<0.05",significantly decreased
same,mechanical pain threshold,"[1]; day 13, NBP 3 mg/kg bid p.o.","had a decreasing trend, but did not have statistical difference"
same,mechanical pain threshold,"[1]; day 13, NBP 10 and 30 mg/kg bid, duloxetine hydrochloride 15 mg/kg qd, P<0.05",significantly decreased
same,thermal pain threshold,"[1]; day 14, NBP 3, 10 and 30 mg/kg bid, duloxetine hydrochloride 15 mg/kg qd, P<0.05",significantly decreased
same,influence of NBP on the PK behavior of ab-PTX in mice,[2],did not affect
same,Inhibition rate (tumor weight),JIMT-1 xenograft tumor; NBP 60 mg/kg bid gavage alone,4.0%
same,Tumor weight,"JIMT-1 xenograft tumor; NBP 60 mg/kg bid gavage alone, mean ± SD, n=8",0.9570 ± 0.2529 g
same,tumor growth,"JIMT-1 xenograft tumor; ab-PTX 15 mg/kg qw i.v., NBP 60 mg/kg bid gavage, compared with the solvent group",not obviously affected
same,body weights of the mice,"JIMT-1 xenograft tumor; ab-PTX 15 mg/kg qw i.v., NBP 6, 20, 60 mg/kg bid gavage, 28 days",no significant difference
same,inhibitory effect on in vitro proliferation,[3],did not have obvious inhibitory effect
same,influence of NBP on the in vivo pharmacokinetic behaviors of monotherapy of Bortezomib and combined therapy of Bortezomib/Palbociclib,[4]; NBP 60 mg/kg bid,did not have obvious influence
same,CI of NBP,[4]; [5],2880 ± 1730 mL/min/kg
same,Vd of NBP,[4]; [5],1445 ± 298 L/kg
same,AUC(0-t),"[4]; Nu/Nu, mouse, plasma, po, NBP 60 mg/kg gavage, Bor 0.5 mg/kg, Pal 70 mg/kg, mean ± SD, n=6, read-out: AUC0-t of NBP in plasma",236 ± 100 ng·h/mL
same,Cmax,"[4]; Nu/Nu, mouse, plasma, po, NBP 60 mg/kg gavage, Bor 0.5 mg/kg, Pal 70 mg/kg, mean ± SD, n=6, read-out: Cmax of NBP in plasma",117 ± 88 ng/mL
same,MRT last,"[4]; Nu/Nu, mouse, plasma, po, NBP 60 mg/kg gavage, Bor 0.5 mg/kg, Pal 70 mg/kg, mean ± SD, n=6, read-out: MRT0-t of NBP",3.1 ± 0.6 h
same,half-life,"[4]; Nu/Nu, mouse, plasma, po, NBP 60 mg/kg gavage, Bor 0.5 mg/kg, Pal 70 mg/kg, mean ± SD, n=6, read-out: t1/2 of NBP in plasma (converted)",10.1 ± 9.7 h
same,inhibition at 30 µM,"A549; read-out: Inhibition rate, First dose",-11.1%
same,inhibition at 30 µM,"A549; read-out: Inhibition rate, Mean ± SD",1.11 ± 10.8%
same,inhibition at 30 µM,"A549; read-out: Inhibition rate, Second dose",9.68%
same,inhibition at 30 µM,"A549; read-out: Inhibition rate, Third dose",4.74%
